Measurements taken from patent US11414379B2, “SPAK kinase inhibitors as neuroprotective agents” (United States Government as represented by the Department …, priority 2018, dated 2022).

Key:
Test in all cases: Kinase panel (Dundee profiling)
Type in all cases: biochemical
Conditions in all cases: read-out: % residual kinase activity
PAK5 = PAK5 (Homo sapiens, UniProt Q9P286)
Experimental: (§1) The kinase selectivity of ZT-1a was further assessed using standard radioisotopic enzymatic assays against a panel of 140 recombinant kinases (Dundee profiling, Table 2) (Bain et al. (2007) The Biochemical journal 408, 297-315). ZT-1a at a concentration of 10 μM inhibited only MAPKAP-K2 activity 85±7% compared to DMSO control, representing high kinase selectivity.
(§2) Referring to Table 2, ZT-1a was tested at 10 and 1 μM against a panel of 140 recombinant kinases in an enzymatic activity-based assay performed by the International Centre for Kinase Profiling in the MRC Protein Phosphorylation and Ubiquitylation Unit. Values represent % residual kinase activity (mean+/−SEM, n=3). Kinases labelled with an asterick* are inhibited ≥50% by ZT-1a.

MLK1 = MLK1 (Homo sapiens, UniProt P80192)
Experimental: as §1, §2

TTBK2 = TTBK2 (Homo sapiens, UniProt Q6IQ55)
Experimental: as §1, §2

IKKe = IKKe (Homo sapiens, UniProt Q14164)
Experimental: as §1, §2

MKK1 = MKK1 (Homo sapiens, UniProt Q02750)
Experimental: as §1, §2

EPH-B4 = EPH-B4 (Homo sapiens, UniProt P54760)
Experimental: as §1, §2

MST2 = MST2 (Homo sapiens, UniProt Q13188)
Experimental: as §1, §2

PLK1 = PLK1 (Homo sapiens, UniProt P53350)
Experimental: as §1, §2

S6K1 = S6K1 (Homo sapiens, UniProt P23443)
Experimental: as §1, §2

TAO1 = TAO1 (Homo sapiens, UniProt Q7L7X3)
Experimental: as §1, §2

ROCK2 = ROCK2 (Rattus norvegicus, UniProt Q62868)
Experimental: as §1, §2

MAPKAP-K3 = MAPKAP-K3 (Homo sapiens, UniProt Q16644)
Experimental: as §1, §2

TIE2 = TIE2 (Homo sapiens, UniProt Q02763)
Experimental: as §1, §2

JNK3 = JNK3 (Homo sapiens, UniProt P53779)
Experimental: as §1, §2

ASK1 = ASK1 (Homo sapiens, UniProt Q99683)
Experimental: as §1, §2

SIK2 = SIK2 (Homo sapiens, UniProt Q9H0K1)
Experimental: as §1, §2

PKBa = PKBa (Homo sapiens, UniProt P31749, S473D)
Experimental: as §1, §2

EF2K = EF2K (Homo sapiens, UniProt O00418)
Experimental: as §1, §2

p38a MAPK = p38a MAPK (Homo sapiens, UniProt Q16539)
Experimental: as §1, §2

EPH-B2 = EPH-B2 (Homo sapiens, UniProt P29323)
Experimental: as §1, §2

MKK6 = MKK6 (Homo sapiens, UniProt P52564)
Experimental: as §1, §2

TTBK1 = TTBK1 (Homo sapiens, UniProt Q5TCY1)
Experimental: as §1, §2

RSK2 = RSK2 (Homo sapiens, UniProt P51812)
Experimental: as §1, §2

IGF-1R = IGF-1R (Homo sapiens, UniProt P08069)
Experimental: as §1, §2

PRAK = PRAK (Homo sapiens, UniProt Q8IW41)
Experimental: as §1, §2

DAPK1 = DAPK1 (Homo sapiens, UniProt P53355)
Experimental: as §1, §2

MNK2 = MNK2 (Homo sapiens, UniProt Q9HBH9)
Experimental: as §1, §2

Src = Src (Homo sapiens, UniProt P12931)
Experimental: as §1, §2

MSK1 = MSK1 (Homo sapiens, UniProt O75582)
Experimental: as §1, §2

CAMKKb = CAMKKb (Homo sapiens, UniProt Q96RR4)
Experimental: as §1, §2

SRPK1 = SRPK1 (Homo sapiens, UniProt Q96SB4)
Experimental: as §1, §2

CK1δ = CK1δ (Homo sapiens, UniProt P48730)
Experimental: as §1, §2

Chain of CK1δ (P48730 whole entry): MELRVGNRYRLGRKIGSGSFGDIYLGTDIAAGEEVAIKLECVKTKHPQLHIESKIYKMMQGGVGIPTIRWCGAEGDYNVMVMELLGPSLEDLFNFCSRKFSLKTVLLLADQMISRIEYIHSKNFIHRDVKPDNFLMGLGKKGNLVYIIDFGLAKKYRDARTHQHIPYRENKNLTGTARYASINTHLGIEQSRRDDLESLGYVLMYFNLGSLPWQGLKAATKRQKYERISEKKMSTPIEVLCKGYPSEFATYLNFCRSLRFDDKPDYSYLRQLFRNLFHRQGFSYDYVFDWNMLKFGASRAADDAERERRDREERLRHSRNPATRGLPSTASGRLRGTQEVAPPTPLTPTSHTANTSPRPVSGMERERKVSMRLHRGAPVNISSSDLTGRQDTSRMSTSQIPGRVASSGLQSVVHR
Chain of PRAK (Q8IW41 whole entry, species assumed): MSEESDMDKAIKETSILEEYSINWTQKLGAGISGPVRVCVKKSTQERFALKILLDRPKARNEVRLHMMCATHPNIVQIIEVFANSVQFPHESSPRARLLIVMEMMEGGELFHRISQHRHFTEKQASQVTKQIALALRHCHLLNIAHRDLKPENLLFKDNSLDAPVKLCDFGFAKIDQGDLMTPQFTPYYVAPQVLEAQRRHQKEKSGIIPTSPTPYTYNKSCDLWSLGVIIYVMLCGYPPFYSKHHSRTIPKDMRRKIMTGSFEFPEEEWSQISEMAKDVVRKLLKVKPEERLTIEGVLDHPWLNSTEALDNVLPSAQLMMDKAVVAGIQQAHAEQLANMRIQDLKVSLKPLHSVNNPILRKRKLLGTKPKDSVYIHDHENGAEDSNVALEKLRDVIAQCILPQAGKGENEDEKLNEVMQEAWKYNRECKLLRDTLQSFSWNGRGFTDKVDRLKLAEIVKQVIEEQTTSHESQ
Chain of ASK1 (Q99683 whole entry, species assumed): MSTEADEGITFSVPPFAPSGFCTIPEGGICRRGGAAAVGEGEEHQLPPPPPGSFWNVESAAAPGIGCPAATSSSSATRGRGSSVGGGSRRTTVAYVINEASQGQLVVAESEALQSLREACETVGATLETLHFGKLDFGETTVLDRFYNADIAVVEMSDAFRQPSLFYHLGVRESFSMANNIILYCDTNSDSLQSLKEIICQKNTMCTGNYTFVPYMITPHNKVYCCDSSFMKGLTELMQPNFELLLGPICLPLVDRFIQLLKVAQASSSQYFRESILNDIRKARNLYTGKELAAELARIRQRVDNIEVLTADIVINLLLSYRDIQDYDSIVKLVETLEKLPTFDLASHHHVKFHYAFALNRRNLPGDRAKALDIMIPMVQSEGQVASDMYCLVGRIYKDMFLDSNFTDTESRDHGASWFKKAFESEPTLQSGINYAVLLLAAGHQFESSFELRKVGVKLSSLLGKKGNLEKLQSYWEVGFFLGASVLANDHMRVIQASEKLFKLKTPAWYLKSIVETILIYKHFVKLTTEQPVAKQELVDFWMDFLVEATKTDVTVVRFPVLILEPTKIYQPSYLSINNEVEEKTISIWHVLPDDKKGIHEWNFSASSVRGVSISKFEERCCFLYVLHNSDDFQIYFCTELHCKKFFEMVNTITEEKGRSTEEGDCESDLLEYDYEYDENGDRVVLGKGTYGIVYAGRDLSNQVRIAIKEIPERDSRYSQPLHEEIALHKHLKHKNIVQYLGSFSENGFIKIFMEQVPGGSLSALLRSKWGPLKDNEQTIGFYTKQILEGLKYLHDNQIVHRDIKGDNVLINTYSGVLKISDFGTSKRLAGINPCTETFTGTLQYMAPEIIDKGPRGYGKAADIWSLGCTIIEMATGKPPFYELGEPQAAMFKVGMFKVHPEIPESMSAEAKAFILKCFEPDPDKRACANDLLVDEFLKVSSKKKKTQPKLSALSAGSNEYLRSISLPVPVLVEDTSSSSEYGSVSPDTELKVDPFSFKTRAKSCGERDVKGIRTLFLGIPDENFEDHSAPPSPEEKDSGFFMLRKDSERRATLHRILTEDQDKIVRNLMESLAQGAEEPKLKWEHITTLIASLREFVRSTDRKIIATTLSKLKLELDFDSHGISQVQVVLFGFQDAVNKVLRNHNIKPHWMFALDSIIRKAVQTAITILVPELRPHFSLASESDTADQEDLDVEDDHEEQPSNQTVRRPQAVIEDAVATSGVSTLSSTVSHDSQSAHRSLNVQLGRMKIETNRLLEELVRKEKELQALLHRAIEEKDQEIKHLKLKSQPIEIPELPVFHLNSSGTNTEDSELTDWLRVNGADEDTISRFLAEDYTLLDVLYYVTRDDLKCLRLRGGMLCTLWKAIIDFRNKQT
Chain of RSK2 (P51812 whole entry, species assumed): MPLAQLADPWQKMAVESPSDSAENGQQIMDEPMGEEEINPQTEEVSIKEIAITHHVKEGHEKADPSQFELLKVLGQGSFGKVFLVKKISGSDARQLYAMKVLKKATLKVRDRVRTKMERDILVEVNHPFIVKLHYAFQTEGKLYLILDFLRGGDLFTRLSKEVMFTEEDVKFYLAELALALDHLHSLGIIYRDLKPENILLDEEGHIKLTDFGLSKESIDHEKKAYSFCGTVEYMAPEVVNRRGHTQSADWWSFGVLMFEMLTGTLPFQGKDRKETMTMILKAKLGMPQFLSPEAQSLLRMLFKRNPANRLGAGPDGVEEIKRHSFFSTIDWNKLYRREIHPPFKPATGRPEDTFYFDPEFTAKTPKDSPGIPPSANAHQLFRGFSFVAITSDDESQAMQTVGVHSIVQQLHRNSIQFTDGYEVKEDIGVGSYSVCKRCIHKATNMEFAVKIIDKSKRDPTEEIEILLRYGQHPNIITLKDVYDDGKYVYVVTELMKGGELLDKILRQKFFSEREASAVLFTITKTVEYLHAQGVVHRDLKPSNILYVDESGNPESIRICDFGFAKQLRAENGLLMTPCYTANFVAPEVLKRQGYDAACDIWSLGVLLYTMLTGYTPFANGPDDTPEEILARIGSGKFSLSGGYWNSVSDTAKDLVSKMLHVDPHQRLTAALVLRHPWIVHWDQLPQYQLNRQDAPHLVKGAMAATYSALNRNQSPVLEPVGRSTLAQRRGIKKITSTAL
Chain of DAPK1 (P53355 whole entry, species assumed): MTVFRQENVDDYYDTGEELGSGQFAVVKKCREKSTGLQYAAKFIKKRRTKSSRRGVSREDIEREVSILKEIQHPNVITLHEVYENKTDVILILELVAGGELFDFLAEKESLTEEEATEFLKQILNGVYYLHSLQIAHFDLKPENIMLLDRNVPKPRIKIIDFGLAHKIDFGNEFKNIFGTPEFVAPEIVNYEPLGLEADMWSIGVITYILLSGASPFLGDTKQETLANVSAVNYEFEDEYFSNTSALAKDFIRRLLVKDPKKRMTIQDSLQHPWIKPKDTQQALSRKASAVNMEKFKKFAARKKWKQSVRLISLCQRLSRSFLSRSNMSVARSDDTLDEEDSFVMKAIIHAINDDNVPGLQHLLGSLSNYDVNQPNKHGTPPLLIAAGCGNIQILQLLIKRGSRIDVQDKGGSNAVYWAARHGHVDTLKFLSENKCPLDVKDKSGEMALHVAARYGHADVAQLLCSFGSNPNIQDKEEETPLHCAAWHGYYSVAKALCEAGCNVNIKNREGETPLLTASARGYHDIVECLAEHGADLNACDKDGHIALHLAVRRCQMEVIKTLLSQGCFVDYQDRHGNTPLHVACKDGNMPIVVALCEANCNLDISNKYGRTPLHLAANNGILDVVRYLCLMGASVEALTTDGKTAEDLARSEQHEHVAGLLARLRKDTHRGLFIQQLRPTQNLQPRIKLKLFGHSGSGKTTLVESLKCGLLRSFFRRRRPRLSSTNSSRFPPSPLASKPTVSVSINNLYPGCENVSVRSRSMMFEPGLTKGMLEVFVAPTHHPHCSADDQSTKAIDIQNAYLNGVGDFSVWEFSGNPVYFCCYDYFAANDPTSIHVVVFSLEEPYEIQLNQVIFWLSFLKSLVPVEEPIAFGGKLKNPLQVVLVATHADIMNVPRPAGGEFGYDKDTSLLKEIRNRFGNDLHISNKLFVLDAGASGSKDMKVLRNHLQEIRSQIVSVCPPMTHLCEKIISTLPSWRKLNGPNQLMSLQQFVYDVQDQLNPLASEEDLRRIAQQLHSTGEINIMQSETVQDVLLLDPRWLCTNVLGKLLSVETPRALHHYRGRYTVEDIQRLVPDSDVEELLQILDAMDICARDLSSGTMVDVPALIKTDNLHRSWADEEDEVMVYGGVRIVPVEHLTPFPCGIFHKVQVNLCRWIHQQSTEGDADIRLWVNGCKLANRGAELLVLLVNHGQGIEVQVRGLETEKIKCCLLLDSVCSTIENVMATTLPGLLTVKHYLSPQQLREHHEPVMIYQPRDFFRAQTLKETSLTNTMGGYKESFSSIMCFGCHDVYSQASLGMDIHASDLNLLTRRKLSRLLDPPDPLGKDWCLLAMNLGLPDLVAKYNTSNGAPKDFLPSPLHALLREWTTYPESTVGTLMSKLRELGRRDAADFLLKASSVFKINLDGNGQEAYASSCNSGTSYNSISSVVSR
Chain of PKBa (P31749 118-480 S473D limits assumed): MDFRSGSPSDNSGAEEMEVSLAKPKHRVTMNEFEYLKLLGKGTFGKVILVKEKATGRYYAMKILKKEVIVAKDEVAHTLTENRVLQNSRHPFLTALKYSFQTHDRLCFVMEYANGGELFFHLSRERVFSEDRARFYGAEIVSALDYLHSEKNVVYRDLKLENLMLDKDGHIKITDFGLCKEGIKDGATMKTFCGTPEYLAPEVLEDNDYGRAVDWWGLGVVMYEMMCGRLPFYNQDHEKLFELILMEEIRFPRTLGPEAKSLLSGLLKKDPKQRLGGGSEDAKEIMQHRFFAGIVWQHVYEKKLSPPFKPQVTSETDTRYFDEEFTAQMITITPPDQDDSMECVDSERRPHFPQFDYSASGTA

## Cc1cc(C(C#N)c2ccc(Cl)cc2)c(Cl)cc1NC(=O)c1cc(Cl)ccc1O (stereo not shown) [ZT-1a, 5-chloro-N-(5-chloro-4-((4-chlorophenyl)(cyano)methyl)-2-methylphenyl)-2-hydroxy-benzamide]
PAK5; 1 μM
  remaining activity at 1 µM: 93 ± 26%
PAK5; 10 μM
  remaining activity at 10 µM: 93 ± 4%
MLK1; 1 μM
  remaining activity at 1 µM: 94 ± 4%
MLK1; 10 μM
  remaining activity at 10 µM: 81 ± 21%
TTBK2; 1 μM
  remaining activity at 1 µM: 101 ± 32%
TTBK2; 10 μM
  remaining activity at 10 µM: 98 ± 34%
IKKe; 1 μM
  remaining activity at 1 µM: 87 ± 13%
IKKe; 10 μM
  remaining activity at 10 µM: 59 ± 5%
MKK1; 1 μM
  remaining activity at 1 µM: 106 ± 2%
MKK1; 10 μM
  remaining activity at 10 µM: 114 ± 17%
EPH-B4; 1 μM
  remaining activity at 1 µM: 100 ± 8%
EPH-B4; 10 μM
  remaining activity at 10 µM: 151 ± 33%
MST2; 1 μM
  remaining activity at 1 µM: 115 ± 4%
MST2; 10 μM
  remaining activity at 10 µM: 113 ± 2%
PLK1; 1 μM
  remaining activity at 1 µM: 72 ± 1%
PLK1; 10 μM
  remaining activity at 10 µM: 93 ± 21%
S6K1; 1 μM
  remaining activity at 1 µM: 119 ± 10%
S6K1; 10 μM
  remaining activity at 10 µM: 81 ± 2%
TAO1; 1 μM
  remaining activity at 1 µM: 66 ± 2%
TAO1; 10 μM
  remaining activity at 10 µM: 104 ± 2%
ROCK2; 1 μM
  remaining activity at 1 µM: 109 ± 6%
ROCK2; 10 μM
  remaining activity at 10 µM: 101 ± 10%
MAPKAP-K3; 1 μM
  remaining activity at 1 µM: 96 ± 26%
MAPKAP-K3; 10 μM
  remaining activity at 10 µM: 72 ± 8%
TIE2; 1 μM
  remaining activity at 1 µM: 139 ± 74%
TIE2; 10 μM
  remaining activity at 10 µM: 73 ± 11%
JNK3; 1 μM
  remaining activity at 1 µM: 63 ± 15%
JNK3; 10 μM
  remaining activity at 10 µM: 60 ± 10%
ASK1; 1 μM
  remaining activity at 1 µM: 101 ± 3%
ASK1; 10 μM
  remaining activity at 10 µM: 100 ± 11%
SIK2; 1 μM
  remaining activity at 1 µM: 105 ± 16%
SIK2; 10 μM
  remaining activity at 10 µM: 76 ± 8%
PKBa; 1 μM
  remaining activity at 1 µM: 104 ± 1%
PKBa; 10 μM
  remaining activity at 10 µM: 91 ± 4%
EF2K; 1 μM
  remaining activity at 1 µM: 104 ± 13%
EF2K; 10 μM
  remaining activity at 10 µM: 56 ± 2%
p38a MAPK; 1 μM
  remaining activity at 1 µM: 128 ± 7%
p38a MAPK; 10 μM
  remaining activity at 10 µM: 113 ± 2%
EPH-B2; 1 μM
  remaining activity at 1 µM: 77 ± 2%
EPH-B2; 10 μM
  remaining activity at 10 µM: 81 ± 8%
MKK6; 1 μM
  remaining activity at 1 µM: 102 ± 12%
MKK6; 10 μM
  remaining activity at 10 µM: 82 ± 16%
TTBK1; 1 μM
  remaining activity at 1 µM: 119 ± 5%
TTBK1; 10 μM
  remaining activity at 10 µM: 102 ± 2%
RSK2; 1 μM
  remaining activity at 1 µM: 116 ± 5%
RSK2; 10 μM
  remaining activity at 10 µM: 101 ± 3%
IGF-1R; 1 μM
  remaining activity at 1 µM: 145 ± 2%
IGF-1R; 10 μM
  remaining activity at 10 µM: 123 ± 3%
PRAK; 1 μM
  remaining activity at 1 µM: 78 ± 13%
PRAK; 10 μM
  remaining activity at 10 µM: 41 ± 7%
DAPK1; 1 μM
  remaining activity at 1 µM: 131 ± 8%
DAPK1; 10 μM
  remaining activity at 10 µM: 159 ± 11%
MNK2; 1 μM
  remaining activity at 1 µM: 100 ± 7%
MNK2; 10 μM
  remaining activity at 10 µM: 105 ± 3%
Src; 1 μM
  remaining activity at 1 µM: 107 ± 4%
Src; 10 μM
  remaining activity at 10 µM: 84 ± 13%
MSK1; 1 μM
  remaining activity at 1 µM: 114 ± 6%
MSK1; 10 μM
  remaining activity at 10 µM: 112 ± 14%
CAMKKb; 1 μM
  remaining activity at 1 µM: 115 ± 10%
CAMKKb; 10 μM
  remaining activity at 10 µM: 102 ± 9%
SRPK1; 1 μM
  remaining activity at 1 µM: 104 ± 5%
SRPK1; 10 μM
  remaining activity at 10 µM: 73 ± 20%
CK1δ; 1 μM
  remaining activity at 1 µM: 116 ± 5%
CK1δ; 10 μM
  remaining activity at 10 µM: 114 ± 9%
